Series [1] in a line: in vitro. The class given is cell-based. To be noted: human, HepG2 cells, 24 h, MTT, read-out: In vitro toxicity (% cell viability); for viability at 24 h, 1 µM: HepG2, 1 µM; for viability at 24 h, 3 µM: HepG2, 3 µM; for viability at 24 h, 10 µM: HepG2, 10 µM; for viability at 24 h, 30 µM: HepG2, 30 µM; for viability at 24 h, 100 µM: HepG2, 100 µM; for viability at 24 h, 300 µM: HepG2, 300 µM; for viability at 24 h, 1 mM: HepG2, 1 mM. As to the method: (§1) A prerequisite for any effective lead drug is to keep its cytotoxicity at the lowest possible level. In this regard, we submitted the four most promising compounds (3Ab, 3Bb, 3Cb and 3Ba) to an in vitro toxicologic evaluation (MTT assay) using human hepatocellular carcinoma cell line (HepG2) which represents a good probe to evaluate hepatotoxic effects. […].
(§2) HepG2 cells were purchased from American Type Culture Collection. The cells were cultured in Eagle’s Minimum Essential Medium (Ozyme, France) supplemented with 10% fetal bovine serum, 1X non-essential amino acids, 100 units/mL penicillin and […] streptomycin (Dutscher, Brumath, France). Cultures were kept under a CO2/air (5%/95%) humidified atmosphere at 37 °C. Prior to the experiment, cells were seeded in 96-well culture plates at a density of 0.1 × 10^6 cells per well. After 24 h of incubation, the culture medium was refreshed and 100 µL of the test compounds or DMSO (0.1%) were added. […] For the MTT assay, after 24 h of treatment, cells were incubated with 50 µL MTT (0.5 mg/mL, Sigma Aldrich, city, France) at 37 °C for 2 h. Plates were centrifuged, MTT was removed and 100 µL DMSO was distributed per well. The absorbance at 570 nm was measured using microplate reader (brand). Cell viability was expressed as percentage of cell viability compared to controls (DMSO, 0.1%).

Series [2] deals with HepG2 cells. Nature of the series: in vitro. Conditions: HepG2, MTT, concentrations up to 1000 μM. The class given is cell-based. The protocol: as §1, §2
Series [3] is described as follows: Oxygen radical absorbance capacity by fluorescence (ORAC-FL). Conditions: mean ± SD. The protocol:
Trolox was used as standard, fluorescein as fluorescent probe and 2,2′-azobis(2-amidinopropane) dihydrochloride (AAPH) as the peroxyl radical source. Ferulic acid was used as a positive control.
The antioxidant power of BCPOs was determined following the ORAC-FL method using fluorescein as the fluorescent probe. (±)-6-Hydroxy-2,5,7,8-tetramethylchromane-2-carboxylic acid (Trolox), fluorescein (FL) and AAPH were bought from Sigma-Aldrich (Saint Louis, MO, USA). A Varioskan Flash plate reader with built-in injectors (Thermo Scientific, Waltham, MA, USA) was used. The final volume reaction mixture was 200 µL and the reaction was carried out at 37 °C in 75 mM phosphate buffer (pH 7.4). The tested compounds and Trolox standard were dissolved in DMSO to 10 mM and further diluted in phosphate buffer. The final concentrations were 0.1–1 µM for the tested compounds and 1–8 µM for Trolox standard. The blank was composed of 120 µL of FL, 60 µL of AAPH and 20 µL of phosphate buffer (pH = 7.4) and was added in each assay. The antioxidant (20 µL) and fluorescein (FL, 120 µL, final concentration of 70 nM) were incubated in a black 96-well microplate Nunc, purchazed from Thermo Fisher Scientific, Ecublens, Switzerland) for 15 min at 37 °C. Then, AAPH, 60 µL, final concentration of 12 mM) solution was added quickly using the built-in injector. […] The microplate was automatically shaken prior to each reading. All the experiments were made in triplicate and at least three different assays were performed for each sample.
Using MS Excel software, regression equations were extrapolated by plotting the net AUC against the antioxidant concentration. The ORAC values were then obtained by dividing the slope of the latter curve between the slope of the Trolox curve obtained in the same assay. Final ORAC values were expressed as Trolox equivalents. Data are expressed as mean ± SD.

In series [4] the target is T1, horse serum BuChE (eqBuChE) (Equus caballus, UniProt P81908).
T1 construct: BuChE from horse serum (lyophilized powder, Sigma-Aldrich); purchased Sigma-Aldrich; host or cells: horse serum
Nature of the series: Inhibition of eqBuChE (Ellman's assay). The class given is biochemical. To be noted: 10 µM compound. As to the method:
(§3) For the preliminary screening of the inhibitory potencies, Electrophorus electricus AChE (EeAChE) and horse serum BuChE (eqBuChE) were used following the Ellman’s assay.
(§4) Assessment of the inhibitory power of BCPOs was performed following the spectrophotometric method of Ellman using purified AChE from Electrophorus electricus (Type V-S, Sigma-Aldrich) or BuChE from horse serum (lyophilized powder, Sigma-Aldrich). Enzymes were first dissolved in 0.1 M phosphate buffer (pH 8.0) and then aliquoted in small vials for easy handling. Compounds stock solutions in DMSO (10 mM) were diluted when necessary with DMSO to prepare appropriate dilutions of each compound. The assay was performed in a final volume of 3 mL of a 0.1 M phosphate-buffered solution at pH 8.0, containing 5,5′-dithiobis-2-nitrobenzoic acid (DTNB, 2625 µL, 0.35 mM, final concentration), EeAChE (29 µL, 0.035 U/mL final concentration) or eqBuChE (60 µL, 0.05 U/mL final concentration) tested compound (3 µL, different concentrations) and 1% (w/v) Bovine Albumin Serum phosphate-buffered (pH 8.0) solution (BSA, 40 µL). The inhibition in comparison to control without compound was determined by pre-incubating this blend at room temperature with each compound at nine different concentrations for 10 min. Then, acetylthiocholine iodide (105 µL, 0.35 mM, final concentration) or butyrylthiocholine iodide (150 µL, 0.5 mM final concentration) was added and incubated for another 15 min at rt. […] Calculation of IC50 values was performed with GraphPad Prism 5. Each concentration was measured in triplicate. Data are expressed as mean ± SEM.
For orientation: Ellman's reagent forms a yellow product with free thiols.

The target of series [5] is T2, Electrophorus electricus AChE (EeAChE) (Electrophorus electricus, UniProt O42275).
T2 construct: purified AChE from Electrophorus electricus (Type V-S, Sigma-Aldrich); purchased Sigma-Aldrich Type V-S
Kind of series: Inhibition of EeAChE (Ellman's assay). The class given is biochemical. Conditions: mean ± SEM, at least three independent experiments. The protocol:
as §3, §4

Each structure is given as a SMILES string. Values joined by “and” are separate entries in the source; they are usually repeats but may differ in a detail not shown here. Identical values can stand only once.

T1 sequence (P81908 whole entry): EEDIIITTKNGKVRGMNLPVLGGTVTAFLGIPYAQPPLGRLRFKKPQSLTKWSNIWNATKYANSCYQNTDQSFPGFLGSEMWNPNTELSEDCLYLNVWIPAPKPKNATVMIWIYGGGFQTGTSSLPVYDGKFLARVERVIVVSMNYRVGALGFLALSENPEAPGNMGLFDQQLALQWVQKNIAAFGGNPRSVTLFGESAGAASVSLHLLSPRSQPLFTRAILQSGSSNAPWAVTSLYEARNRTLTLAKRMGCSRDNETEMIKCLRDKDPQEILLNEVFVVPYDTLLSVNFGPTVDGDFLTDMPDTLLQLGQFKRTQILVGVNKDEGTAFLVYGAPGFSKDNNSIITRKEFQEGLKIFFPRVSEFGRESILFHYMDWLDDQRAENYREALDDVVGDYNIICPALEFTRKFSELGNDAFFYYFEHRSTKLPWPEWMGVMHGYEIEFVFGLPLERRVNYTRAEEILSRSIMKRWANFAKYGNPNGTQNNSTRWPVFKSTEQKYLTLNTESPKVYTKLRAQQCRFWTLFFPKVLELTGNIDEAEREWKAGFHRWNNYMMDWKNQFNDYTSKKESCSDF
T2 sequence (O42275 24-633): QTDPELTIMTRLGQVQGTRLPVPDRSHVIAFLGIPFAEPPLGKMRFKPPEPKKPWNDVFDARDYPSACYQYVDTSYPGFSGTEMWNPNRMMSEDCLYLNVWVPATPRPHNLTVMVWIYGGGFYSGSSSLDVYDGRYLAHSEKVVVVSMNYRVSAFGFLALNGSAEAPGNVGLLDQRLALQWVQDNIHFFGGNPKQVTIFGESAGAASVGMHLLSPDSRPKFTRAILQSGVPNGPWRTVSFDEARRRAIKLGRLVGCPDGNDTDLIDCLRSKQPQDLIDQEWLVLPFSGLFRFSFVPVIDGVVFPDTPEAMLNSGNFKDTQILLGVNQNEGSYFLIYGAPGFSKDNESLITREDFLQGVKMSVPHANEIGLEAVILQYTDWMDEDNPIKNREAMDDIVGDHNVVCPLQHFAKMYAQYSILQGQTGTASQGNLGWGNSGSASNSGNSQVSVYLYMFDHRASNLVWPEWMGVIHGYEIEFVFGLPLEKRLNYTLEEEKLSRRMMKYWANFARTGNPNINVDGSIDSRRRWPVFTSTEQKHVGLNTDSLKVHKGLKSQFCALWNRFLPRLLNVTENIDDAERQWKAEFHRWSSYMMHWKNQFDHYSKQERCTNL

As a reminder, the viability is a read-out of living cells in per cent, often relative to untreated cells. As a reminder, the inhibition is the percentage by which the read-out fell short of the control. Lower therefore signals a response near the control. As usually defined, the IC50 is the concentration needed to halve the response being measured. As to `O=c1c2c(nc3n1CCCC3)Oc1ccc3ccccc3c1C2c1ccccc1` (centres unmarked) [3Ab, 15-Phenyl-10,11,12,15-tetrahydro-9H-benzo[5,6]chromeno[2,3-d]pyrido[1,2-a]pyrimidin-14-one], in series [1], the viability at 24 h, 1 µM was determined as 99.3 ± 4%; the viability at 24 h, 3 µM stood at 95.3 ± 2.3%; the viability at 24 h, 10 µM amounted to 98.5 ± 2.5%; the viability at 24 h, 30 µM stood at 91.5 ± 4.5%. Besides, in series [1], the viability at 24 h, 100 µM is 101 ± 3.1%; the viability at 24 h, 300 µM amounted to 110 ± 5.5%; the viability at 24 h, 1 mM was 110 ± 4.4%. Also, the “hepatotoxicity on HepG2 cells (in words)” value in series [2] is on record as “non-hepatotoxic”. This molecule also had an ORAC in series [3] of 2.3 ± 0.3 Trolox equivalents. In series [4], this molecule registered an inhibition at 10 µM of 31.2 ± 1.8%. This molecule also returned an IC50 in series [5] of 0.0555 ± 0.0071 µM.
As to `COc1cccc(C2c3c(nc4n(c3=O)CCC4)Oc3ccc4ccccc4c32)c1` (centres unmarked) [3Ba, 14-(3′Methoxyphenyl)-10,11-dihydro-14H-benzo[5,6]chromeno[2,3-d]pyrrolo[1,2-a]pyrimidin-13(9H)-one], in series [1], the viability at 24 h, 1 µM was determined as 109 ± 2%; the viability at 24 h, 3 µM is 108 ± 4.8%; the viability at 24 h, 10 µM was determined as 106 ± 3.5%; the viability at 24 h, 30 µM came to 99.2 ± 4.2%. Also, in series [1], the viability at 24 h, 100 µM came to 97 ± 5.4%; the viability at 24 h, 300 µM came to 108 ± 2.8%; the viability at 24 h, 1 mM was determined as 120 ± 6.8%. Besides, the “hepatotoxicity on HepG2 cells (in words)” value in series [2] was “non-hepatotoxic”. In series [3], this molecule had an ORAC of 3.4 ± 0.2 Trolox equivalents. This molecule also displayed an inhibition at 10 µM in series [4] of 51 ± 4%. The IC50 in series [5] was determined as 0.0607 ± 0.0045 µM.
As to `COc1cccc(C2c3c(nc4n(c3=O)CCCC4)Oc3ccc4ccccc4c32)c1` (centres unmarked) [3Bb, 15-(3′-Methoxyphenyl)-10,11,12,15-tetrahydro-9H-benzo[5,6]chromeno[2,3-d]pyrido[1,2-a]pyrimidin-14-one], in series [1], the viability at 24 h, 1 µM worked out at 108 ± 2.4%; the viability at 24 h, 3 µM turned out to be 111 ± 8.7%; the viability at 24 h, 10 µM was 105 ± 4.2%; the viability at 24 h, 30 µM was 104 ± 5%. In series [1], the viability at 24 h, 100 µM was found to be 112 ± 2.3%; the viability at 24 h, 300 µM stood at 118 ± 7.3%; the viability at 24 h, 1 mM was 128 ± 5%. Further, in series [2], the “hepatotoxicity on HepG2 cells (in words)” value is “non-hepatotoxic”. For the same molecule, in series [3], the ORAC is 4.7 Trolox equivalents and 4.7 ± 0.2 Trolox equivalents. The molecule further showed an inhibition at 10 µM in series [4] of 43 ± 1.9%. In series [5], this molecule displayed an IC50 of 0.0305 ± 0.0028 µM.
On to `Cc1ccc(C2c3c(nc4n(c3=O)CCCC4)Oc3ccc4ccccc4c32)cc1` (centres unmarked) [3Cb, 15-(4′-Methylphenyl)-10,11,12,15-tetrahydro-9H-benzo[5,6]chromeno[2,3-d]pyrido[1,2-a]pyrimidin-14-one], for which, in series [1], the viability at 24 h, 1 µM was found to be 106 ± 7%; the viability at 24 h, 3 µM came out at 103 ± 10.8%; the viability at 24 h, 10 µM was 110 ± 9.1%; the viability at 24 h, 30 µM is 113 ± 5.8%. Further, in series [1], the viability at 24 h, 100 µM was 103 ± 5.7%; the viability at 24 h, 300 µM was found to be 113 ± 5.2%; the viability at 24 h, 1 mM is 110 ± 8%. For the same molecule, the “hepatotoxicity on HepG2 cells (in words)” value in series [2] is reported as “non-hepatotoxic”. In series [3], the ORAC is 3.9 ± 0.3 Trolox equivalents. In series [4], this molecule displayed an inhibition at 10 µM of 19 ± 2%. For the same molecule, the IC50 in series [5] was 0.0559 ± 0.0127 µM.

These data come from publication PMC6273488, “Synthesis and Biological Evaluation of Benzochromenopyrimidinones as Cholinesterase Inhibitors and Potent Antioxidant, Non-Hepatotoxic Agents for Alzheimer’s Disease” (Molecules, 2016).
